In patent US20260200920A1, “SUBSTITUTED AMINOPYRIDINE COMPOUNDS FOR USE AS AKT1 INHIBITORS” (Atavistik Bio, Inc., priority 2023, published 2026):

Experiments:
[1] = target: T1, human recombinant kinase full-length wildtype AKT1 (Homo sapiens, UniProt P31749); test: AKT1 kinase assay (wildtype, TR-FRET, Lance); format: biochemical; details: 0.6 nM wildtype AKT1, 50 nM Ulight-CREBtide, either 50 μM ATP or 2 mM ATP, 60 min at RT
T1 construct: Purified human recombinant kinase full-length wildtype AKT1 was expressed in insect cells; made in house; host or cells: insect cells
T1 sequence (P31749 whole entry): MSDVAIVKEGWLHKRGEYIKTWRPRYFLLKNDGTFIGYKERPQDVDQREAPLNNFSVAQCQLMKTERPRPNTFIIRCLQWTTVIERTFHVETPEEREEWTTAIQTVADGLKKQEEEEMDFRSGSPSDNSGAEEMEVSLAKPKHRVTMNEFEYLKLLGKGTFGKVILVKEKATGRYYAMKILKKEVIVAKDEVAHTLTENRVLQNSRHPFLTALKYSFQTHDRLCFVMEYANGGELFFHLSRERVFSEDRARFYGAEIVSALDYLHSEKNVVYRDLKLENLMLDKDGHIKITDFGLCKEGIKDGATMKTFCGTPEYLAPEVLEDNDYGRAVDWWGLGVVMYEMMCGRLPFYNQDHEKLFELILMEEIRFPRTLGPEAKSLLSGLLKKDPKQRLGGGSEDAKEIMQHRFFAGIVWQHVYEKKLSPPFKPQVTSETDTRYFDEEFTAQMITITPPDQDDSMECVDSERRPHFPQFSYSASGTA
Method in brief: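 TR-FRET 665/620 ratio quantified phospho-CREBtide formed by PDPK1-activated full-length human AKT1 (0.6 nM, insect-cell-derived) over 60 min at RT with 50 nM ULight-CREBtide and either 50 μM or 2 mM ATP. Compounds were preincubated 15 min with enzyme; IC50 came from 4-parameter fits of 10-point duplicates.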

[2] = target: T2, human recombinant kinase full-length AKT1 E17K (Homo sapiens, UniProt P31749, E17K); test: AKT1 E17K kinase assay (TR-FRET, Lance); format: biochemical; details: 0.6 nM AKT1 E17K, 50 nM Ulight-CREBtide, either 50 μM ATP or 2 mM ATP, 60 min at RT
T2 construct: Purified human recombinant kinase full-length AKT1 E17K was expressed in insect cells; made in house; host or cells: insect cells
T2 sequence (P31749 whole entry E17K): as the sequence (P31749 whole entry) above, with E17K counted along it
Method in brief: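 IC50 came from a 10-point, 4-parameter fit of the 665/620 TR-FRET ratio read with Eu-anti-phospho-CREB (Ser133). Reaction at RT for 60 min after 15 min compound preincubation, using 0.6 nM PDPK1-activated full-length AKT1 E17K (insect-cell), 50 nM Ulight-CREBtide, ATP at 50 μM or 2 mM, HEPES pH 7.5, 1% DMSO.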

SMILES | IC50 [1] | IC50 [2]
C[C@]1(C(=O)O)CC[C@H](CN2CC(c3ccc(-n4c(-c5cccnc5N)nc5ccc(-c6ccccc6)nc54)cc3)C2)CC1 [Compound I-138, (1r,4r)-4-((3-(4-(2-(2-aminopyridin-3-yl)-5-phenyl-3H-imidazo[4,5-b]pyridin-3-yl)phenyl)azetidin-1-yl)methyl)-1-methylcyclohexane-1-carboxylic acid] | < 20000 nM | < 500 nM
NC(=O)C1CCC(CN2CC(c3ccc(-n4c(-c5cccnc5N)nc5ccc(-c6ccccc6)nc54)cc3)C2)CC1 (stereo not drawn) [Compound I-140, 4-((3-(4-(2-(2-aminopyridin-3-yl)-5-phenyl-3H-imidazo[4,5-b]pyridin-3-yl)phenyl)azetidin-1-yl)methyl)cyclohexane-1-carboxamide] | < 20000 nM | 500 to 2000 nM
Cc1nc(NC(=O)[C@H]2CC[C@H](C(N)=O)CC2)ccc1-n1c(-c2cccnc2N)nc2ccc(-c3ccccc3)nc21 [Compound I-142, trans-N-(5-(2-(2-aminopyridin-3-yl)-5-phenyl-3H-imidazo[4,5-b]pyridin-3-yl)-6-methylpyridin-2-yl)cyclohexane-1,4-dicarboxamide] | < 20000 nM | 500 to 2000 nM
CC(C)C([C@H]1CC[C@H](C(=O)O)CC1)N1CC(c2ccc(-n3c(-c4cccnc4N)nc4ccc(-c5ccccc5)nc43)cc2)C1 (stereo partly drawn) [Compound I-143] | < 20000 nM | 500 to 2000 nM
CC1(C)C[C@H](CN2CC(c3ccc(-n4c(-c5cccnc5N)nc5ccc(-c6ccccc6)nc54)cc3)C2)CC(C)(C)[C@@H]1C(=O)O [Compound I-148] | < 20000 nM | < 500 nM
CNS(=O)(=O)C1CCC(CN2CC(c3ccc(-n4c(-c5cccnc5N)nc5ccc(-c6ccccc6)nc54)cc3)C2)CC1 (stereo not drawn) [Compound I-152] | < 20000 nM | 500 to 2000 nM
CC1(c2ccc(-n3c(-c4cccnc4N)nc4ccc(-c5ccccc5)nc43)cc2)CN(C[C@H]2CC[C@H](C(=O)O)CC2)C1 [Compound I-154] | < 20000 nM | 500 to 2000 nM
CC1(c2ccc(-n3c(-c4cccnc4N)nc4ccc(-c5ccccc5)nc43)cc2)CN(CC2CC3(C2)CC(C(=O)O)C3)C1 (stereo not drawn) [Compound I-155] | < 20000 nM | < 500 nM
CN(CCc1ccc(-n2c(-c3cccnc3N)nc3ccc(-c4ccccc4)nc32)cc1)[C@H]1CC[C@H](C(=O)O)CC1 [Compound I-158] | < 20000 nM | 500 to 2000 nM
Nc1ncccc1-c1nc2ccc(-c3ccccc3)nc2n1-c1ccc(CCN2CCC(C(=O)O)C2)cc1 (stereo not drawn) [Compound I-159] | < 20000 nM | < 500 nM
CN(Cc1ccc(-n2c(-c3cccnc3N)nc3ccc(-c4ccccc4)nc32)c(F)c1)C12CCC(C(=O)O)(CC1)CC2 [Compound I-161] | < 20000 nM | < 500 nM
CCN(Cc1ccc(-n2c(-c3cccnc3N)nc3ccc(-c4ccccc4)nc32)c(F)c1)[C@H]1CC[C@@H](C(=O)O)CC1 [Compound I-162] | < 20000 nM | ≥ 2000 nM
CN(Cc1ccc(-n2c(-c3cccnc3N)nc3ccc(-c4ccccc4)nc32)c(F)c1)[C@H]1CC[C@H](C(=O)O)CC1 [Compound I-164] | < 20000 nM | 500 to 2000 nM
CC(C)CN(Cc1ccc(-n2c(-c3cccnc3N)nc3ccc(-c4ccccc4)nc32)cc1)[C@H]1CC[C@H](C(=O)O)CC1 [Compound I-166] | < 20000 nM | ≥ 2000 nM
CCN(Cc1ccc(-n2c(-c3cccnc3N)nc3ccc(-c4ccccc4)nc32)cc1)[C@H]1CC[C@H](C(=O)O)CC1 [Compound I-167] | < 20000 nM | 500 to 2000 nM
CN(Cc1ccc(-n2c(-c3cccnc3N)nc3ccc(-c4ccccc4)nc32)cc1)[C@H]1CC[C@H](CC(=O)O)CC1 [Compound I-169] | < 20000 nM | < 500 nM
CN(Cc1ccc(-n2c(-c3cccnc3N)nc3ccc(-c4ccccc4)nc32)cc1)[C@@H]1CC[C@@H](C(=O)O)C1 [Compound I-170] | < 20000 nM | < 500 nM
CN(Cc1ccc(-n2c(-c3cccnc3N)nc3ccc(-c4ccccc4)nc32)cc1)C1CC[C@H](C(=O)O)C1 (stereo partly drawn) [Compound I-172] | < 20000 nM | < 500 nM
CN(Cc1ccc(-n2c(-c3cccnc3N)nc3ccc(-c4ccccc4)nc32)cc1)C1CC[C@@H](C(=O)O)C1 (stereo partly drawn) [Compound I-173] | < 20000 nM | 500 to 2000 nM
CC(c1ccc(-n2c(-c3cccnc3N)nc3ccc(-c4ccccc4)nc32)cc1)N(C)[C@H]1CC[C@H](C(=O)O)CC1 (stereo partly drawn) [Compound I-176] | < 20000 nM | 500 to 2000 nM
CC(c1ccc(-n2c(-c3cccnc3N)nc3ccc(-c4ccccc4)nc32)cc1)N(C)[C@H]1CC[C@@H](C(=O)O)CC1 (stereo partly drawn) [Compound I-177] | < 20000 nM | 500 to 2000 nM
Cc1cc(CN(C)[C@H]2CC[C@H](C(=O)O)CC2)ccc1-n1c(-c2cccnc2N)nc2ccc(-c3ccccc3)nc21 [Compound I-178] | < 20000 nM | ≥ 2000 nM
Cc1cc(CN2CCC(C(C)(C)C(=O)O)C2)ccc1-n1c(-c2cccnc2N)nc2ccc(-c3ccccc3)nc21 (stereo not drawn) [Compound I-180] | < 20000 nM | ≥ 2000 nM
Cc1nc(CN(C)[C@H]2CC[C@@H](C(=O)O)CC2)ccc1-n1c(-c2cccnc2N)nc2ccc(-c3ccccc3)nc21 [Compound I-184] | < 20000 nM | 500 to 2000 nM

Results, then the compound that gave them:

IC50 [1] | IC50 [2] | SMILES
< 20000 nM | < 500 nM | Cc1cc(C2CN(C[C@H]3CC[C@H](C(=O)O)CC3)C2)ccc1-n1c(-c2cccnc2N)nc2ccc(-c3ccccc3)nc21 [Compound I-139, (1r,4r)-4-((3-(4-(2-(2-aminopyridin-3-yl)-5-phenyl-3H-imidazo[4,5-b]pyridin-3-yl)-3-methylphenyl)azetidin-1-yl)methyl)cyclohexane-1-carboxylic acid]
< 20000 nM | 500 to 2000 nM | CNC(=O)[C@H]1CC[C@H](C(=O)Nc2ccc(-n3c(-c4cccnc4N)nc4ccc(-c5ccccc5)nc43)c(C)n2)CC1 [Compound I-141, (1r,4r)-N1-(5-(2-(2-aminopyridin-3-yl)-5-phenyl-3H-imidazo[4,5-b]pyridin-3-yl)-6-methylpyridin-2-yl)-N4-methylcyclohexane-1,4-dicarboxamide]
< 20000 nM | < 500 nM | Nc1ncccc1-c1nc2ccc(-c3ccccc3)nc2n1-c1ccc(C2CN(CC34CCC(C(=O)O)(CC3)CC4)C2)cc1 [Compound I-146]
< 20000 nM | < 500 nM | CC1(C)C[C@H](CN2CC(c3ccc(-n4c(-c5cccnc5N)nc5ccc(-c6ccccc6)nc54)cc3)C2)CC(C)(C)[C@H]1C(=O)O [Compound I-147]
< 20000 nM | < 500 nM | Nc1ncccc1-c1nc2ccc(-c3ccccc3)nc2n1-c1ccc(C2CN(C[C@H]3CC4CC3CC4C(=O)O)C2)cc1 (stereo partly drawn) [Compound I-149]
< 20000 nM | < 500 nM | Nc1ncccc1-c1nc2ccc(-c3ccccc3)nc2n1-c1ccc(C2CN(C[C@@H]3CC4CC3CC4C(=O)O)C2)cc1 (stereo partly drawn) [Compound I-150]
< 20000 nM | < 500 nM | Nc1ncccc1-c1nc2ccc(-c3ccccc3)nc2n1-c1ccc(C2CN(CC3CC4CC(C(=O)O)CC4C3)C2)cc1 (stereo not drawn) [Compound I-151]
< 20000 nM | < 500 nM | Nc1ncccc1-c1nc2ccc(-c3ccccc3)nc2n1-c1ccc(C2CN(CC3CCC(CC(=O)O)CC3)C2)cc1 (stereo not drawn) [Compound I-153]
< 20000 nM | 500 to 2000 nM | Cc1cc(C2(C)CN(C[C@H]3CC[C@H](C(=O)O)CC3)C2)ccc1-n1c(-c2cccnc2N)nc2ccc(-c3ccccc3)nc21 [Compound I-156]
< 20000 nM | 500 to 2000 nM | Cc1cc(C2(C)CN(CC3CC4(C3)CC(C(=O)O)C4)C2)ccc1-n1c(-c2cccnc2N)nc2ccc(-c3ccccc3)nc21 (stereo not drawn) [Compound I-157]
< 20000 nM | 500 to 2000 nM | C[C@@H]1C[C@H](N(C)Cc2ccc(-n3c(-c4cccnc4N)nc4ccc(-c5ccccc5)nc43)c(F)c2)C[C@H](C)[C@H]1C(=O)O [Compound I-160]
< 20000 nM | ≥ 2000 nM | CCN(Cc1ccc(-n2c(-c3cccnc3N)nc3ccc(-c4ccccc4)nc32)c(F)c1)[C@H]1CC[C@H](C(=O)O)CC1 [Compound I-163]
< 20000 nM | < 500 nM | CN(Cc1ccc(-n2c(-c3cccnc3N)nc3ccc(-c4ccccc4)nc32)c(F)c1)[C@H]1CC[C@@H](C(=O)O)CC1 [Compound I-165]
< 20000 nM | ≥ 2000 nM | CC(C)N(Cc1ccc(-n2c(-c3cccnc3N)nc3ccc(-c4ccccc4)nc32)cc1)[C@H]1CC[C@H](C(=O)O)CC1 [Compound I-168]
< 20000 nM | 500 to 2000 nM | Cc1cc(CN(C)[C@H]2CC[C@@H](C(=O)O)CC2)ccc1-n1c(-c2cccnc2N)nc2ccc(-c3ccccc3)nc21 [Compound I-179]
< 20000 nM | 500 to 2000 nM | NC(=O)N1CCC(CCc2ccc(-n3c(-c4cccnc4N)nc4ccc(-c5ccccc5)nc43)cc2F)CC1 [Compound I-181]
< 20000 nM | < 500 nM | Cc1nc(NC(=O)N2CCC(C(=O)O)CC2)ccc1-n1c(-c2cccnc2N)nc2ccc(-c3ccccc3)nc21 [Compound I-182]
< 20000 nM | ≥ 2000 nM | Cc1nc(CN(C)[C@H]2CC[C@H](C(=O)O)CC2)ccc1-n1c(-c2cccnc2N)nc2ccc(-c3ccccc3)nc21 [Compound I-183]
